Measurements from US9265773B2, “Tetracyclic heterocycle compounds and methods of use thereof for the treatment of viral diseases” (priority 2011, dated 2016).

Tests used:
HCV replicon genotype 1b = test: microbe, parasite or virus in culture; assay type: cell-based; conditions: genotype 1b replicon cells, incubated 96 hours, NS3/4A ELISA readout
HCV replicon genotype 1a = test: microbe, parasite or virus in culture; assay type: cell-based; conditions: genotype 1a replicon cells, incubated 96 hours, NS3/4A ELISA readout

SMILES	IC50 (HCV replicon genotype 1b; Hepatitis C virus, 96 h) [nM]	IC50 (HCV replicon genotype 1a; Hepatitis C virus, 96 h) [nM]	IC50 (HCV replicon genotype 1b) [nM]	IC50 (HCV replicon genotype 1a) [nM]
CNC(=O)c1c(-c2ccc(F)cc2)oc2cc(-c3ccoc3)c(-c3ccc4c(n3)-c3cc5c(F)cccc5n3CO4)cc12 [Compound 167]	17	21	–	–
CCOC(=O)N(C)C(=O)c1c(-c2ccc(F)cc2)oc2cc(N(C)S(C)(=O)=O)c(-c3ccc4c(n3)-c3cc5c(F)cccc5n3CO4)cc12 [Compound 208, Ethyl (5-(11-fluoro-6H-pyrido[2′,3′:5,6][1,3]oxazino[3,4-a]indol-2-yl)-2-(4-fluorophenyl)-6-(N-methylmethylsulfonamido)benzofuran-3-carbonyl)(methyl)carbamate]	122	42	–	–
CNC(=O)c1c(-c2ccc(F)cc2)oc2cc(N(CC3CC3)S(C)(=O)=O)c(-c3ccc4c(n3)-c3cc5c(F)cccc5n3CO4)cc12 [Compound 200]	22	14	–	–
CNC(=O)c1c(-c2ccc(F)cc2)oc2cc(N(C)S(C)(=O)=O)c(-c3ccc4c(n3)-c3cc5cccc(C#N)c5n3CO4)cc12 [Compound 18]	5.4	9.2	–	–
CNC(=O)c1c(-c2ccc(F)cc2)oc2cc(N3CCCS3(=O)=O)c(-c3ccc4c(n3)-c3cc5c(F)cccc5n3CO4)cc12 [Compound 175, 6-(1,1-dioxidoisothiazolidin-2-yl)-5-(11-fluoro-6H-pyrido[2′,3′:5,6][1,3]oxazino[3,4-a]indol-2-yl)-2-(4-fluorophenyl)-N-methylbenzofuran-3-carboxamide]	3.1	5.3	–	–
CNC(=O)c1c(-c2ccc(F)cc2)oc2cc(N(C)S(C)(=O)=O)c(-c3ccc4c(n3)-c3cc5cc(F)ccc5n3CO4)cc12 [Compound 3]	3.7	2	–	–
COC(=O)C(=O)N(C)C(=O)c1c(-c2ccc(F)cc2)oc2cc(N(C)S(C)(=O)=O)c(-c3ccc4c(n3)-c3cc5c(F)cccc5n3CO4)cc12 [Compound 209, methyl 2-(5-(11-fluoro-6H-pyrido[2′,3′:5,6][1,3]oxazino[3,4-a]indol-2-yl)-2-(4-fluorophenyl)-N-methyl-6-(N-methylmethylsulfonamido)benzofuran-3-carboxamido)-2-oxoacetate]	2.6	0.6	–	–
CNC(=O)c1c(-c2ccc(F)cc2)oc2cc(N(C3COC3)S(C)(=O)=O)c(-c3ccc4c(n3)-c3cc5c(F)cccc5n3CO4)cc12 [Compound 199]	5.9	4.7	–	–
CNC(=O)c1c(-c2ccc(F)cc2)oc2cc(N(C)S(C)(=O)=O)c(-c3ccc4c(n3)-c3cc5c(F)cccc5n3C(C(=O)NC(C)C)O4)cc12 (stereo not drawn) [Compound 111]	4.3	4.5	–	–
CNC(=O)c1c(-c2ccc(F)cc2)oc2cc(N(C)S(C)(=O)=O)c(-c3ccc4oc(=O)n5c6ccccc6cc5c4c3)cc12 [Compound 53, 2-(4-fluorophenyl)-N-methyl-6-(N-methylmethylsulfonamido)-5-(6-oxo-6H-benzo[5,6][1,3]oxazino[3,4-a]indol-2-yl)benzofuran-3-carboxamide]	7.9	8	–	–
CNC(=O)c1c(-c2ccc(F)cc2)oc2cc(N3CC(=O)NC3=O)c(-c3ccc4c(n3)-c3cc5c(F)cccc5n3CO4)cc12 [Compound 179, 6-(2,4-dioxoimidazolidin-1-yl)-5-(11-fluoro-6H-pyrido[2′,3′:5,6][1,3]oxazino[3,4-a]indol-2-yl)-2-(4-fluorophenyl)-N-methylbenzofuran-3-carboxamide]	7.4	32	–	–
CNC(=O)c1c(-c2ccc(F)cc2)oc2cc(N(C)S(C)(=O)=O)c(-c3ncc4c(n3)-c3cc5c(F)cccc5n3CO4)cc12 [Compound 5]	2	1	–	–
CNC(=O)c1c(-c2ccc(F)cc2)oc2cc(N(CCF)S(C)(=O)=O)c(-c3ccc4c(n3)-c3cc5ccccc5n3CO4)cc12 [Compound 189]	4.4	2.9	–	–
CNC(=O)c1c(-c2ccc(F)cc2)oc2cc(N(C)S(C)(=O)=O)c(-c3ccc4c(n3)-c3cc5c(F)cccc5n3C(CNCC(=O)O)O4)cc12 (stereo not drawn) [Compound 116, 2-(((11-fluoro-2-(2-(4-fluorophenyl)-3-(methylcarbamoyl)-6-(N-methylmethylsulfonamido)benzofuran-5-yl)-6H-pyrido[2′,3′:5,6][1,3]oxazino[3,4-a]indol-6-yl)methyl)amino)acetic acid]	9.4	53	–	–
CNC(=O)c1c(-c2ccc(F)cc2)oc2cc(N3CCOC3=O)c(-c3ccc4c(n3)-c3cc5cc(F)ccc5n3CO4)cc12 [Compound 174]	4.7	13	–	–
CNC(=O)c1c(-c2ccc(F)cc2)oc2cc(N(C)S(C)(=O)=O)c(-c3ccc4c(n3)-c3nc5cccc(F)c5n3CO4)cc12 [Compound 140]	5.9	7.9	–	–
CNC(=O)c1c(-c2ccc(F)cc2)oc2cc(N(C)S(C)(=O)=O)c(-c3ncc4c(n3)-c3cc5c(F)c(F)ccc5n3CO4)cc12 [Compound 30]	2.1	1	–	–

SMILES	IC50 (HCV replicon genotype 1b; Hepatitis C virus, 96 h) [nM]	IC50 (HCV replicon genotype 1a; Hepatitis C virus, 96 h) [nM]	IC50 (HCV replicon genotype 1b) [nM]	IC50 (HCV replicon genotype 1a) [nM]
CNC(=O)c1c(-c2ccc(F)cc2)oc2cc(N(C)S(C)(=O)=O)c(-c3cnc4c(c3)-c3nc5ccccn5c3CO4)cc12 [Compound 144, 2-(4-fluorophenyl)-N-methyl-6-[methyl(methylsulfonyl)amino]-5-(6H pyrido[1″,2″:1′,2′]imidazo[4′,5′:4,5]pyrano[2,3-b]pyridin-2-yl)-1-benzofuran-3-carboxamide]	1.9	2.9	–	–
CNC(=O)c1c(-c2ccc(F)cc2)oc2cc(N(C)S(C)(=O)=O)c(-c3ccc4c(c3)-c3cc5c(F)cccc5n3CO4)cc12 [Compound 43, 5-(11-fluoro-6H-benzo[5,6][1,3]oxazino[3,4-a]indol-2-yl)-2-(4-fluorophenyl)-N-methyl-6-(N-methylmethylsulfonamido)benzofuran-3-carboxamide]	3.9	2.4	–	–
CNC(=O)c1c(-c2ccc(F)cc2)oc2cc(N(C)S(C)(=O)=O)c(-c3ccc4c(c3)-c3cc5ccccc5n3CC(N(C)CCO)CO4)cc12 (stereo not drawn) [Compound 86]	12	17	–	–
CNC(=O)c1c(-c2ccc(F)cc2)oc2cc(N(C)S(C)(=O)=O)c(-c3ccc4c(n3)-c3cc5cccc(CN(C)C)c5n3CO4)cc12 [Compound 71]	4.5	13	–	–
CNC(=O)c1c(-c2ccc(F)cc2)oc2cc(N(C)S(C)(=O)=O)c(-c3ccc4c(n3)-c3cc5c(F)cccc5n3C(CN(C)C)O4)cc12 (stereo not drawn) [Compound 122, 5-(6-((dimethylamino)methyl)-11-fluoro-6H-pyrido[2′,3′:5,6][1,3]oxazino[3,4-a]indol-2-yl)-2-(4-fluorophenyl)-N-methyl-6-(N-methylmethylsulfonamido)benzofuran-3-carboxamide]	–	–	5.2	5.1
CNC(=O)c1c(-c2ccc(F)cc2)oc2cc(N3CCC3=O)c(-c3ccc4c(n3)-c3cc5c(F)cccc5n3CO4)cc12 [Compound 176]	8.8	7.9	–	–
CNC(=O)c1c(-c2ccc(F)cc2)oc2cc(-c3ccsc3)c(-c3ccc4c(n3)-c3cc5c(F)cccc5n3CO4)cc12 [Compound 166]	27	69	–	–
CCNC(=O)c1c(-c2ccc(F)cc2)oc2cc(N(C)S(C)(=O)=O)c(-c3ccc4c(n3)-c3cc5c(F)cccc5n3CO4)cc12 [Compound 156]	2.9	2.3	–	–
CNC(=O)c1c(-c2ccc(F)cc2)oc2cc(N(C)S(C)(=O)=O)c(-c3cc4c(c[n+]3[O-])OCn3c-4cc4c(F)cccc43)cc12 [Compound 74]	25	15	–	–
CNC(=O)c1c(-c2ccc(F)cc2)oc2cc(N(C)S(C)(=O)=O)c(-c3ccc4c(n3)-c3cc5cc(C#N)cc(F)c5n3CO4)cc12 [Compound 31]	6.5	7.2	–	–
CNC(=O)c1c(-c2ccc(F)cc2)oc2cc(N(C)S(C)(=O)=O)c(-c3ccc4c(n3)-c3cc5c(F)cccc5n3C(CNC(=O)[C@@H](NC(=O)OC)C(C)C)O4)cc12 (stereo partly drawn) [Compound 127]	–	–	1.6	3.5
CNC(=O)c1c(-c2ccc(F)cc2)oc2cc(N(C)S(C)(=O)=O)c(-c3ccc4c(c3)-c3cc5ccccc5n3C(C3CC3)O4)cc12 (stereo not drawn) [Compound 132]	7.9	4.8	–	–
CNC(=O)c1c(-c2ccc(F)cc2)oc2cc(N(C)S(C)(=O)=O)c(-c3ccc4c(n3)-c3cc5c(F)cccc5n3C(CNC(C)=O)O4)cc12 (stereo not drawn) [Compound 129]	–	–	2.1	1.7
CNC(=O)c1c(-c2ccc(F)cc2)oc2cc(-c3ccnn3C)c(-c3ccc4c(n3)-c3cc5c(F)cccc5n3CO4)cc12 [Compound 165, 5-(11-fluoro-6H-pyrido[2′,3′:5,6][1,3]oxazino[3,4-a]indol-2-yl)-2-(4-fluorophenyl)-N-methyl-6-(1-methyl-1H-pyrazol-5-yl)benzofuran-3-carboxamide]	9.7	27	–	–
CNC(=O)c1c(-c2ccc(F)cc2)oc2cc(N(C)S(C)(=O)=O)c(-c3ccc4c(n3)-c3cc5c(F)cccc5n3C(C(=O)NC)O4)cc12 (stereo not drawn) [Compound 109]	–	2	2.1	–
CNC(=O)c1c(-c2ccc(F)cc2F)oc2cc(N(C)S(C)(=O)=O)c(-c3ncc4c(n3)-c3cc5c(F)cccc5n3CO4)cc12 [Compound 149]	2.2	1.2	–	–
